Data on 2 compounds can be found in US11707442B2, “Antibacterial and antifungal compounds” (The General Hospital Corporation, priority 2015, dated 2023).

Experiment [1] deals with C. elegans infected with MRSA strain MW2. The class given is in vivo. As to conditions: result in words. On the procedure:
The C. elegans-MRSA liquid infection assay has been described (Rajamuthiah et al. Plos One. 2014; 9(2):e89189). In brief, 4,500 glp-4 (bn2); sek-1(km4) L1 hatchlings were grown on SK-HB101 agar plates for 52 hours at the restrictive temperature of 25° C. until animals became sterile young adults and later harvested with M9 buffer. S. aureus MW2 was grown overnight at 37° C. in TSB, first under aerobic conditions and later shifted to anaerobic growth conditions at 37° C. The infection assay was performed in standard 384-well assay plates, in the presence of the compound being tested or 1% dimethyl sulfoxide (DMSO) as a control. Bacteria were added to the wells at a final OD600 of 0.06, followed by the use of a Complex Object Parametric Analyzer and Sorter (COPAS) large particle sorter (Union Biometrica, Holliston, Mass., USA) to transfer 15 adult worms to each well of an assay plate. After 5 days of incubation in a humidified chamber at 25° C., the bacteria and other debris were washed from the wells with a microplate washer and the worms were stained with the vital dye Sytox Orange (Life Technologies). After overnight incubation at 25° C. in a humidified chamber, the plates were imaged using an Image Xpress Micro automated microscope (Molecular Devices, Sunnyvale, Calif., USA), capturing both transmitted light and TRITC (535 nm excitation, 610 nm emission) fluorescent images with a 2× objective. The images from the infection assay were processed using the open source image analysis software CellProfiler and analysis modules as described previously. The ratio of Sytox worm area to bright field worm area, and the resultant percentage survival data, is calculated by the software for each well of the assay plates. The assay was performed in triplicate comparing the survival of worms at various concentrations of drugs.
Killing assays were carried out as described in Methods using S. aureus MRSA MW2 and 10 μg/ml retinoids, 10 μg/ml vancomycin (positive control), or 1% DMSO (negative control) at 25° C. for 5 days. Data are representative of three independent experiments. (B) Chemical structures of synthetic retinoids. (C) Growth of MRSA strain MW2 exposed to the indicated concentrations of compounds was quantified by measuring OD600 after 18 h in tryptic soy broth (TSB). (D) C. elegans infected with MRSA strain MW2 was treated with indicated concentrations of compounds. Percent survival of C. elegans was normalized to C. elegans treated with DMSO. (E-F) MRSA persisters prepared as described in Methods were treated with the indicated concentrations of each retinoid. Viability was measured by serial dilution and plating on TSA plates. The data points on the x-axis are below the level of detection (2×10^2 CFU/ml). (E,F) Results are shown as means±s.d.; n=3.

In experiment [2] the test system is E. faecalis. The experiment in a line: MIC, broth microdilution. The experiment is classed as cell-based, Enterococcus faecalis. Conditions: result in words. The procedure: To test the bacterial MICs for compounds described herein, the total volume in each well was 100 μl of test compounds and bacterial cells in MH broth. Two-fold serial dilutions were carried out to get compounds in the concentration range 0.0625-64 μg/ml. The bacterial concentration was adjusted to an initial OD600 of 0.03. After incubation at 35° C. for 18 hrs, the absorbance was measured at 595 nm in accordance with CLSI document M07-A8. The MICs of antibiotics were determined by the standard microdilution method recommended by the Clinical and Laboratory Standards Institute.
On the technique in general: In broth dilution the organism is exposed to a series of concentrations in liquid medium.

Experiment [3] relates to S. aureus. The experiment in a line: Minimal inhibitory concentration (MIC), broth microdilution. The experiment is classed as cell-based, Staphylococcus aureus. As to conditions: for MIC: Staphylococcus aureus. An excerpt: (§1) Bacterial strains and growth conditions and persister isolation: methicillin-resistant S. aureus (MRSA) strain MW2 BAA-1707, vancomycin-resistant S. aureus strain VRS 1, 11 clinical S. aureus isolates, 8 clinical Enterococcus faecium isolates, Klebsiella pneumoniae WGLW2 (BEI Resources, Manassas, Va., USA), Acinetobacter baumannii ATCC 17978, Pseudomonas aeruginosa PA14, and Enterobacter aerogenes ATCC 13048 were used to test antimicrobial activity (See Table 1a). S. aureus and E. faecium strains were grown in tryptic soy broth (TSB) (BD, Franklin Lakes, N.J., USA) or brain-heart infusion (BHI) broth (BD, Franklin Lakes, N.J., USA), respectively at 37° C. at 225 rpm. K. pneumoniae, A. baumannii, P. aeruginosa, and E. aerogenes were grown in Luria Bertani (LB) broth (BD, Franklin Lakes, N.J., USA).
(§2) To test the bacterial MICs for compounds described herein, the total volume in each well was 100 μl of test compounds and bacterial cells in MH broth. […] The bacterial concentration was adjusted to an initial OD600 of 0.03. After incubation at 35° C. for 18 hrs, the absorbance was measured at 595 nm in accordance with CLSI document M07-A8. The MICs of antibiotics were determined by the standard microdilution method recommended by the Clinical and Laboratory Standards Institute.

Experiment [4] has as its system E. faecium. Description: MIC, broth microdilution. Conditions: for MIC: Enterococcus faecium. The experiment is classed as cell-based, Enterococcus faecium.
Excerpt: as §1, §2

In experiment [5] the test system is E. aerogenes ATCC 13048. Description: MIC, broth microdilution. As to conditions: Klebsiella aerogenes, ATCC13048; E. aerogenes ATCC 13048; read-out: Minimum inhibitory concentration. The experiment is classed as cell-based, Enterobacter aerogenes.
Excerpt: as §1, §2

The test system of experiment [6] is A. baumannii. The experiment in a line: MIC, broth microdilution. The class given is cell-based, Acinetobacter baumannii. As to conditions: Acinetobacter baumannii, ATCC17978; A. baumannii ATCC 17978; read-out: Minimum inhibitory concentration.
Excerpt: as §1, §2

Experiment [7] relates to K. pneumonia WGLW2. Description: MIC, broth microdilution. The class given is cell-based, Klebsiella pneumoniae. As to conditions: Klebsiella pneumoniae; K. pneumonia WGLW2; read-out: Minimum inhibitory concentration.
Excerpt: as §1, §2

Experiment [8] relates to P. aeruginosa. Description: MIC, broth microdilution. The experiment is classed as cell-based, Pseudomonas aeruginosa. Conditions: Pseudomonas aeruginosa; P. aeruginosa PA14; read-out: Minimum inhibitory concentration.
Excerpt: as §1, §2

≈ marks a conversion by molar mass, not a printed value. Entries after “also recorded” stand apart in the source; their conditions may differ. Read-outs that look alike come from different tables or passages of the source.

With `COc1ccc(-c2ccc3cc(C(=O)O)ccc3c2)cc1C12CC3CC(CC(C3)C1)C2` [Adapalene, 6-(4-methoxy-3-tricyclo[3.3.1.13,7]dec-1-ylphenyl)-2-naphthalenecarboxylic acid], the “rescue of C. elegans from MRSA infection” value in experiment [1] is reported as “nor did it protect”. The “susceptibility of E. faecalis” value in experiment [2] is “not inhibited”. Moreover, in experiment [3] (MRSA MW2, result in words), the “direct inhibition of MRSA growth” value is “did not inhibit; also recorded: did not have significant antimicrobial activity”. For the same compound, the “susceptibility of E. faecium” value in experiment [4] (result in words) is “not inhibited”.
With `Cc1onc(-c2ccccc2)c1C(=O)N[C@@H]1C(=O)N2[C@@H]1SC(C)(C)[C@@H]2C(=O)O` [Oxacillin], the MIC in experiment [5] was > 64 µg/mL; in experiment [6], > 64 µg/mL; in experiment [7], > 64 µg/mL; in experiment [3] (S. aureus BF1, read-out: Minimum inhibitory concentration), > 64 µg/mL; in experiment [3] (S. aureus BF2, read-out: Minimum inhibitory concentration) it was > 64 µg/mL; in experiment [3] (S. aureus BF3, read-out: Minimum inhibitory concentration), 32 µg/mL (≈ 79.7 µM). For the same compound, the MIC in experiment [3] (S. aureus BF4, read-out: Minimum inhibitory concentration) is 16 µg/mL (≈ 39.9 µM); in experiment [3] (S. aureus BF5, read-out: Minimum inhibitory concentration), > 64 µg/mL; in experiment [3] (S. aureus BF6, read-out: Minimum inhibitory concentration) it was 1 µg/mL (≈ 2.49 µM); in experiment [3] (S. aureus BF7, read-out: Minimum inhibitory concentration) it was > 64 µg/mL; in experiment [3] (S. aureus BF8, read-out: Minimum inhibitory concentration) it was > 64 µg/mL; in experiment [3] (S. aureus BF9, read-out: Minimum inhibitory concentration), 0.25 µg/mL (≈ 0.623 µM). Moreover, the MIC in experiment [3] (S. aureus BF10, read-out: Minimum inhibitory concentration) was > 64 µg/mL; in experiment [3] (S. aureus BF11, read-out: Minimum inhibitory concentration), > 64 µg/mL; in experiment [3] (S. aureus MW2, read-out: Minimum inhibitory concentration), 64 µg/mL (≈ 159 µM); in experiment [3] (S. aureus VRS1, read-out: Minimum inhibitory concentration), > 64 µg/mL; in experiment [3] (Staphylococcus aureus clinical isolate BF1 (Table 5), read-out: Drug MIC) it was > 64 µg/mL; in experiment [3] (Staphylococcus aureus clinical isolate BF2 (Table 5), read-out: Drug MIC) it was > 64 µg/mL. The MIC in experiment [3] (Staphylococcus aureus clinical isolate BF3 (Table 5), read-out: Drug MIC) is 32 µg/mL (≈ 79.7 µM); in experiment [3] (Staphylococcus aureus clinical isolate BF4 (Table 5), read-out: Drug MIC), 16 µg/mL (≈ 39.9 µM); in experiment [3] (Staphylococcus aureus clinical isolate BF5 (Table 5), read-out: Drug MIC), > 64 µg/mL; in experiment [3] (Staphylococcus aureus clinical isolate BF6 (Table 5), read-out: Drug MIC) it was 1 µg/mL (≈ 2.49 µM); in experiment [3] (Staphylococcus aureus clinical isolate BF7 (Table 5), read-out: Drug MIC) it was > 64 µg/mL; in experiment [3] (Staphylococcus aureus clinical isolate BF8 (Table 5), read-out: Drug MIC) it was > 64 µg/mL. The MIC is 0.25 µg/mL (≈ 0.623 µM) in experiment [3] (Staphylococcus aureus clinical isolate BF9 (Table 5), read-out: Drug MIC); > 64 µg/mL in experiment [3] (Staphylococcus aureus clinical isolate BF10 (Table 5), read-out: Drug MIC); > 64 µg/mL in experiment [3] (Staphylococcus aureus clinical isolate BF11 (Table 5), read-out: Drug MIC); > 64 µg/mL in experiment [4] (E. faecium C68, read-out: Minimum inhibitory concentration); > 64 µg/mL in experiment [4] (E. faecium D14, read-out: Minimum inhibitory concentration); > 64 µg/mL in experiment [4] (E. faecium D24, read-out: Minimum inhibitory concentration). Moreover, the MIC in experiment [4] (E. faecium D25, read-out: Minimum inhibitory concentration) is > 64 µg/mL; in experiment [4] (E. faecium D29, read-out: Minimum inhibitory concentration), > 64 µg/mL; in experiment [4] (E. faecium E007, read-out: Minimum inhibitory concentration), > 64 µg/mL; in experiment [4] (E. faecium WB213, read-out: Minimum inhibitory concentration), > 64 µg/mL; in experiment [4] (E. faecium WC176, read-out: Minimum inhibitory concentration) it was > 64 µg/mL; in experiment [4] (Enterococcus faecium clinical isolate C68 (Table 6), read-out: Drug MIC), > 64 µg/mL. Also, the MIC in experiment [4] (Enterococcus faecium clinical isolate D14 (Table 6), read-out: Drug MIC) was 2 µg/mL (≈ 4.98 µM); in experiment [4] (Enterococcus faecium clinical isolate D24 (Table 6), read-out: Drug MIC), 1 µg/mL (≈ 2.49 µM); in experiment [4] (Enterococcus faecium clinical isolate D25 (Table 6), read-out: Drug MIC), 1 µg/mL (≈ 2.49 µM); in experiment [4] (Enterococcus faecium clinical isolate D29 (Table 6), read-out: Drug MIC) it was 2 µg/mL (≈ 4.98 µM); in experiment [4] (Enterococcus faecium clinical isolate W312 (Table 6), read-out: Drug MIC), > 64 µg/mL; in experiment [4] (Enterococcus faecium clinical isolate WC176 (Table 6), read-out: Drug MIC), > 64 µg/mL. For the same compound, in experiment [8], the MIC was > 64 µg/mL.
